Assay results: US10815241B2, “Optically active azabicyclo ring derivative” (priority 2018, dated 2020)
Where two headings read alike, the source gives them in different places.

How the values were obtained:
[1] = target: Menin-MLL binding (His-Menin1-615 / MLL1-172-FLAG) (Homo sapiens (Human), UniProt O00255); assay: Test 1: inhibition of the Menin-MLL binding (HTRF); settings: for IC50: Menin-MLL binding inhibition; for Menin-MLL binding inhibition activity: statement in words on the table of Test 1
Chain of Menin-MLL binding (His-Menin1-615 / MLL1-172-FLAG) (O00255 other isoform, or with tags, fused parts or gaps): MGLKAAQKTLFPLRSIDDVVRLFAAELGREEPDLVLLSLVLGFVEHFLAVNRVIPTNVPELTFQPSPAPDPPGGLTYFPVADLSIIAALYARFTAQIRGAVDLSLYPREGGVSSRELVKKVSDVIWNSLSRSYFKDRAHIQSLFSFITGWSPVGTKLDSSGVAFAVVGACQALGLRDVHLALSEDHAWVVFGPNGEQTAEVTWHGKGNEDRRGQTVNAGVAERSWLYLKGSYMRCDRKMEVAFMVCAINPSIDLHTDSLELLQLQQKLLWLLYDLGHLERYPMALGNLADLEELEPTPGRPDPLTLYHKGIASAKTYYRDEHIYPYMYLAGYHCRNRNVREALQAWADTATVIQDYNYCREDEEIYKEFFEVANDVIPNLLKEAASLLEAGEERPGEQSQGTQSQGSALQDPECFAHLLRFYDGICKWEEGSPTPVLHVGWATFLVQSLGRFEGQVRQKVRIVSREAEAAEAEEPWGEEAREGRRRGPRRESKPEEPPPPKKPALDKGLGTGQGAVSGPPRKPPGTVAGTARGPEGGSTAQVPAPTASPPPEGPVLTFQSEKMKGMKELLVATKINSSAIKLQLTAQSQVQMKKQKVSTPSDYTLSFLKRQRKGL
Procedure: After the incubation, the signal was detected with RUBYstar (BMG LABTECH).

[2] = tested on: RS4; 11 cells; assay: Test 2: inhibition of cell proliferation, RS4;11; format: cell-based; settings: for IC50: RS4;11 cells, 7 days, PrestoBlue cell viability; for cell proliferation inhibition activity: statement in words, RS4;11 and MOLM-13 cells
Procedure: (§1) RS4; 11 cells were obtained from American Type Culture Collection (ATCC). […] MOLM-13 cells were separately obtained from DSMZ (Deutsche Sammlung von Mikroorganismen und Zellkulturen GmbH).
(§2) The cells were plated to a 96-well plate in 2000 cells/well, each test compound was added thereto to adjust the final concentration of DMSO to 0.1% of DMSO, and the cells were cultured for 7 days. After the cultivation, the cell viability was calculated with PrestoBlue™ Cell Viability Reagent (Invitrogen, A13261).

[3] = tested on: MOLM-13 cells; assay: Test 2: inhibition of cell proliferation, MOLM-13; format: cell-based; settings: 7 days, PrestoBlue cell viability
Procedure: as §1, §2

[4] = tested on: MEIS1; assay: Test 3: inhibition of mRNA transcription, MEIS1 in MV4;11 cells; format: cell-based; settings: for mRNA at 1 μM (% control) MEIS1: MV4;11 cells, 20 to 24 hours, relative to GAPDH; for mRNA transcription inhibition activity: statement in words, MEIS1 and HOXA9, MV4;11 cells
From the text: (§3) MV4; 11 cells were obtained from American Type Culture Collection (ATCC). […] The expression level of each obtained gene (MEIS1 and HOXA9) was fitted with the expression level of mRNA of GAPDH.

[5] = tested on: HOXA9; assay: Test 3: inhibition of mRNA transcription, HOXA9 in MV4;11 cells; format: cell-based; settings: 20 to 24 hours, relative to GAPDH
From the text: as §3

[6] = target: hERG (human Ether-a-go-go Related Gene) (Homo sapiens (Human), UniProt Q12809); assay: Test 4: hERG inhibition (QPatch HT, CHO cells stably expressing hERG); settings: for hERG/RS4; 11: hERG IC50 divided by RS4;11 proliferation IC50
Chain of hERG (human Ether-a-go-go Related Gene) (Q12809 whole entry): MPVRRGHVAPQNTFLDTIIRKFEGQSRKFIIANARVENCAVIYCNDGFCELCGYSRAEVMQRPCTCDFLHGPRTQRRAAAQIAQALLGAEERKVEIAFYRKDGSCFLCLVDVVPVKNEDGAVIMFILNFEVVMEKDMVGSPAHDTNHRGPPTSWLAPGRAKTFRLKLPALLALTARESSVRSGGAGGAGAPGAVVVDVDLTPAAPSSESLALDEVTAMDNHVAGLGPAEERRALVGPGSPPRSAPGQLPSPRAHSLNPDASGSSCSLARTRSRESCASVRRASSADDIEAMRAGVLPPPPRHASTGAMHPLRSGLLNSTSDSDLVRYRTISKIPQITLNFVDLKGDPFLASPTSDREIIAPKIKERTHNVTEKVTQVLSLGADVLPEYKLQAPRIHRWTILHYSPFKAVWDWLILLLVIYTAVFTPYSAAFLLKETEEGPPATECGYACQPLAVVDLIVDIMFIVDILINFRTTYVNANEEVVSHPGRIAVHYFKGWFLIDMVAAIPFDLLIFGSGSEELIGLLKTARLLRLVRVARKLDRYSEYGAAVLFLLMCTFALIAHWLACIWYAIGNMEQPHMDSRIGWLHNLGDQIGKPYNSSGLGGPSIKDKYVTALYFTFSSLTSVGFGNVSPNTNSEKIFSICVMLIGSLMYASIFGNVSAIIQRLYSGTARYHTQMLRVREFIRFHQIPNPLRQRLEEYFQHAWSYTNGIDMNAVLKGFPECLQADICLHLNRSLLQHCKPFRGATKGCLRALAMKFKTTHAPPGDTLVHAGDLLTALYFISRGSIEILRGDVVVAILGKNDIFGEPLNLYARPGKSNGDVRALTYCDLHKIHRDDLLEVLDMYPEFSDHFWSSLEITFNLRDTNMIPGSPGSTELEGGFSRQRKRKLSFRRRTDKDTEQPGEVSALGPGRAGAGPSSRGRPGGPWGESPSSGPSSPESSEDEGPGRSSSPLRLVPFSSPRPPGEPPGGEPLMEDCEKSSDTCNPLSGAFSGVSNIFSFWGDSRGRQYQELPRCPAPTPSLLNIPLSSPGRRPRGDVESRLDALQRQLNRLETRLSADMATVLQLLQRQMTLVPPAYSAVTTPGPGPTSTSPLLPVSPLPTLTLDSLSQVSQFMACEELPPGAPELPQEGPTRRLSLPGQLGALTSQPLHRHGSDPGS

[7] = read-out: hERG inhibition IC50, hERG current, CHO cells

Compound	IC50 [1] [µM]	Menin-MLL binding inhibition activity [1]	IC50 ([2]; Homo sapiens) [µM]	cell proliferation inhibition activity [2]	IC50 ([3]; Homo sapiens) [µM]	mRNA at 1 μM (% control) MEIS1 [4] [% control]	mRNA transcription inhibition activity [4]	mRNA at 1 μM (% control) HOXA9 [5] [% control]	IC50 [6] [µM]	gap between RS4; 11 proliferation IC50 and hERG current IC50 [6]	hERG/RS4; 11 [6]	IC50 [6, 7] [µM]	IC50 [2] [µM]	IC50 [3] [µM]
CC(C)N(C(=O)c1cc(F)ccc1Oc1cncnc1N1CC2(CCN(C(=O)[C@H]3N[C@H]4CC[C@@H]3C[C@@H]4CC3CC3)CC2)C1)C(C)C [Example 1, 2-[(4-{7-[(1S,3S,4R,6S)-6-(Cyclopropylmethyl)-2-azabicyclo[2.2.2]octane-3-carbonyl]-2,7-diazaspiro[3.5]nonan-2-yl}pyrimidin-5-yl)oxy]-5-fluoro-N,N-di(propan-2-yl)benzamide]	0.0053	potent	< 0.01	potent	0.02	11.8	showed the mRNA transcription inhibition activity	40.2	4	more than 100 fold	>400			
CC(C)N(C(=O)c1cc(F)ccc1Oc1cncnc1N1CCC2(CCN(C(=O)[C@H]3N[C@H]4CC[C@@H]3CC4)C2)C1)C(C)C (stereo partly drawn) [Example 2, 2-[(4-{7-[(1R,3S,4R)-2-Azabicyclo[2.2.2]octane-3-carbonyl]-2,7-diazaspiro[4.4]nonan-2-yl}pyrimidin-5-yl)oxy]-5-fluoro-N,N-di(propan-2-yl)benzamide]			0.87		0.81				11.8		13.6			
CC(C)N(C(=O)c1cc(F)ccc1Oc1cncnc1N1CC2(CN(C(=O)[C@H]3N[C@H]4CC[C@@H]3C[C@@H]4CC3CC3)C2)C1)C(C)C [Example 3, 2-[(4-{6-[(1S,3S,4R,6S)-6-(cyclopropylmethyl)-2-azabicyclo[2.2.2]octane-3-carbonyl]-2,6-diazaspiro[3.3]heptan-2-yl}pyrimidin-5-yl)oxy]-5-fluoro-N,N-di(propan-2-yl)benzamide]	< 0.003	particularly potent	0.03	potent	0.01	11.9	showed the mRNA transcription inhibition activity	39.6	6.2	more than 100 fold	620			
C=C1C[C@@H]2CC[C@H]1[C@@H](C(=O)N1CCC3(CC1)CN(c1ncncc1Oc1ccc(F)cc1C(=O)N(C(C)C)C(C)C)C3)N2 [Example 6, 5-Fluoro-2-[(4-{7-[(1S,3S,4R)-5-methylidene-2-azabicyclo[2.2.2]octane-3-carbonyl]-2,7-diazaspiro[3.5]nonan-2-yl}pyrimidin-5-yl)oxy]-N,N-di(propan-2-yl)benzamide]			0.02		0.03	15.1	showed the mRNA transcription inhibition activity	39.3						
C=C1C[C@@H]2CC[C@H]1[C@@H](C(=O)N1CC3(C1)CN(c1ncncc1Oc1ccc(F)cc1C(=O)N(C(C)C)C(C)C)C3)N2 [Example 7, 5-fluoro-2-[(4-{6-[(1S,3S,4R)-5-methylidene-2-azabicyclo[2.2.2]octane-3-carbonyl]-2,6-diazaspiro[3.3]heptan-2-yl}pyrimidin-5-yl)oxy]-N,N-di(propan-2-yl)benzamide]							showed the mRNA transcription inhibition activity							
C=C1C[C@H]2CC[C@@H]1N[C@@H]2C(=O)N1CCC2(CC1)CN(c1ncncc1Oc1ccc(F)cc1C(=O)N(C(C)C)C(C)C)C2 [Example 8, 5-fluoro-2-[(4-{7-[(1S,3S,4R)-6-methylidene-2-azabicyclo[2.2.2]octane-3-carbonyl]-2,7-diazaspiro[3.5]nonan-2-yl}pyrimidin-5-yl)oxy]-N,N-di(propan-2-yl)benzamide]			0.09		0.11	17.1		40.1	12.3	more than 100 fold	137			
C=C1C[C@H]2CC[C@@H]1N[C@@H]2C(=O)N1CC2(C1)CN(c1ncncc1Oc1ccc(F)cc1C(=O)N(C(C)C)C(C)C)C2 [Example 9, 5-fluoro-2-[(4-{6-[(1S,3S,4R)-6-methylidene-2-azabicyclo[2.2.2]octane-3-carbonyl]-2,6-diazaspiro[3.3]heptan-2-yl}pyrimidin-5-yl)oxy]-N,N-di(propan-2-yl)benzamide]			0.08		0.08	17.0		41.2	> 10	more than 100 fold	>125			
CC(C)N(C(=O)c1cc(F)ccc1Oc1cncnc1N1CC2(CN(C(=O)[C@H]3NC4CCC3CC4)C2)C1)C(C)C [Example 11, 2-[(4-{6-[(1R,3S,4R)-2-azabicyclo[2.2.2]octane-3-carbonyl]-2,6-diazaspiro[3.3]heptan-2-yl}pyrimidin-5-yl)oxy]-5-fluoro-N,N-di(propan-2-yl)benzamide]						13.1	showed the mRNA transcription inhibition activity	36.5			>500	> 10		
CC(C)N(C(=O)c1cc(F)ccc1Oc1cncnc1N1CC2(CCN(C(=O)[C@H]3N[C@H]4CC[C@@H]3C(=O)C4)CC2)C1)C(C)C [Example 12, 5-fluoro-2-[(4-{7-[(1S,3S,4S)-5-oxo-2-azabicyclo[2.2.2]octane-3-carbonyl]-2,7-diazaspiro[3.5]nonan-2-yl}pyrimidin-5-yl)oxy]-N,N-di(propan-2-yl)benzamide]			0.25		0.25				> 100	more than 100 fold	>400			
CC(C)N(C(=O)c1cc(F)ccc1Oc1cncnc1N1CC2(CCN(C(=O)[C@H]3N[C@H]4CC[C@@H]3[C@@H](F)[C@H]4CC3CC3)CC2)C1)C(C)C [Example 14, 2-[(4-{7-[(1S,3S,4S,5S,6S)-6-(cyclropylmethyl)-5-fluoro-2-azabicyclo[2.2.2]octane-3-carbonyl]-2,7-diazaspiro[3.5]nonan-2-yl}pyrimidin-5-yl)oxy]-5-fluoro-N,N-di(propan-2-yl)benzamide]				potent						more than 100 fold		11.7	0.02	0.04
CC(C)N(C(=O)c1cc(F)ccc1Oc1cncnc1N1CC2(CN(C(=O)[C@H]3N[C@@H]4CC[C@H]3C4)C2)C1)C(C)C [Example 15, 2-[(4-{6-[(1R,3S,4S)-2-azabicyclo[2.2.1]heptane-3-carbonyl]-2,6-diazaspiro[3.3]heptan-2-yl}pyrimidin-5-yl)oxy]-5-fluoro-N,N-di(propan-2-yl)benzamide]									> 100		>6250			
CC(C)N(C(=O)c1cc(F)ccc1Oc1cncnc1N1CC2(CCN(C(=O)[C@H]3N[C@@H]4CC[C@H]3C4)CC2)C1)C(C)C [Example 16, 2-[(4-{7-[(1R,3S,4S)-2-azabicyclo[2.2.1]heptane-3-carbonyl]-2,7-diazaspiro[3.5]nonan-2-yl}pyrimidin-5-yl)oxy]-5-fluoro-N,N-di(propan-2-yl)benzamide]					0.04				> 100		>3571			
C=C1C[C@@H]2C[C@H]1[C@@H](C(=O)N1CCC3(CC1)CN(c1ncncc1Oc1ccc(F)cc1C(=O)N(C(C)C)C(C)C)C3)N2 [Example 18, 5-fluoro-2-[(4-{7-[(1S,3S,4R)-5-methylidene-2-azabicyclo[2.2.1]heptane-3-carbonyl]-2,7-diazaspiro[3.5]nonan-2-yl}pyrimidin-5-yl)oxy]-N,N-di(propan-2-yl)benzamide]					0.04				46.1		>2095			
CC(C)N(C(=O)c1cc(F)ccc1Oc1cncnc1N1CC2(CCN(C(=O)[C@H]3N[C@H]4CC[C@@H]3[C@H](F)[C@@H]4CC3CC3)CC2)C1)C(C)C [Example 19, 2-[(4-{7-[(1S,3S,4S,5R,6R)-6-(cyclopropylmethyl)-5-fluoro-2-azabicyclo[2.2.2]octane-3-carbonyl]-2,7-diazaspiro[3.5]nonan-2-yl}pyrimidin-5-yl)oxy]-5-fluoro-N,N-di(propan-2-yl)benzamide]			< 0.01		< 0.01				6.9	more than 100 fold	>690			
[2H]C([2H])=C1C[C@@H]2CC[C@H]1[C@@H](C(=O)N1CCC3(CC1)CN(c1ncncc1Oc1ccc(F)cc1C(=O)N(C(C)C)C(C)C)C3)N2 [Example 20, 5-Fluoro-2-[(4-{7-[(1S,3S,4R)-5-(^2H2)methylidene-2-azabicyclo[2.2.2]octane-3-carbonyl]-2,7-diazaspiro[3.5]nonan-2-yl}pyrimidin-5-yl)oxy]-N,N-di(propan-2-yl)benzamide]					< 0.03									
